# Test results from patent publication US20210317102A1, “INHIBITORS OF INTEGRATED STRESS RESPONSE PATHWAY” (Praxis Biotech LLC, priority 2019, published 2021).
# Legend:
# Format in all cases: cell-based
# [1] = tested on: Chinese hamster ovary (CHO) cells; experiment: Protein synthesis assay (puromycin incorporation, western blot); settings: Cricetulus griseus; unstressed CHO cells (without Tg), 1 μM test compound, 2 hours; media alone = 100%; read-out: % Protein synthesis relative to untreated (1 μM test compound)
# In short: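 CHO cells treated 2 h with 1 μM compound alone, or with 300 nM thapsigargin plus 1 μM compound, then pulsed 30 min with 10 μg/ml puromycin. Puromycin incorporation read by anti-puromycin western blot with densitometry. Unstressed values normalized to media alone (100%); stressed recovery normalized to media alone (100%) and Tg alone (0%).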
# ARH cells = experiment: Secretion of Ig-kappa by ARH cells; settings: 1 µM of compound 10 for 24 hours, vs vehicle (0.1% DMSO)
# Experimental: ARH cells were maintained at 37° C. and 5% CO2 and seeded at a density of 500,000 cell/well in RPMI supplemented with, 100 U/ml penicillin, and 100 μg/ml streptomycin in a 12-well culture plate. Cells were treated either with vehicle (0.1% DMSO) or […] of compound 10 for 24 hours. Then, culture media with cells were recovered in microtubes and centrifuged at 500 g for 5 minutes. Supernatants (SN) which contain secreted proteins were extracted and protease and phosphatase inhibitors (Roche) were added to each sample. SN were centrifuged at 2,000 g for 10 min to discard any cellular debris and 900 μL SN were transferred to empty microtubes with 400 μL methanol by mixing well. 200 μL of chloroform was added to the mix and then samples were centrifuged at 14,000 g for 2 minutes. Top aqueous layer was discarded by pipetting off and 400 μL methanol was added to each sample by mixing well. Samples were then centrifuged at 17,000 g for 8 minutes and methanol was discarded by pipetting off without disturbing the protein pellet. […] Quantification of protein bands was done by densitometry using ImageJ software.
# Percent of secreted Ig kappa light chain by ARH cells treated with vehicle or compound 10 from three independent experiments is shown in FIG. 4. Percentage was calculated as the percent relative to Ig kappa secretion levels from ARH cells treated with vehicle which correspond to 100%.
# L-Wnt-3A cells = experiment: Secretion of Wnt-3A by L-Wnt-3A cells; settings: 1 µM compound 10, DMEM with reduced FBS (1%), 24 hours, vs vehicle
# Experimental: L-Wnt-3A cells (ATCC® CRL-2647™) were maintained at 37° C. and 5% CO2 in DMEM supplemented with 10% fetal bovine serum (FBS), 2 mM L-glutamine, 100 U/ml penicillin, and 100 μg/ml streptomycin. After reaching 80% of confluence, cells were detached and seeded on 6-well plates in complete media, allowed to recover for 48 h. Cells were then washed three times with PBS and treated with vehicle (1% DMSO) or 1 µM compound 10 in DMEM with reduced FBS (1%) for 24 hours. Then, culture media with cells were recovered in microtubes and centrifuged at 500 g for 5 minutes. Supernatants (SN) which contain secreted proteins were extracted and protease and phosphatase inhibitors (Roche) were added to each sample. SN were centrifuged at 2,000 g for 10 min to discard any cellular debris and 900 μL SN were transferred to empty microtubes with […] methanol by mixing well. 200 μL of chloroform was added to the mix and then samples were centrifuged at 14,000 g for 2 minutes. […] Quantification of protein bands was done by densitometry using ImageJ software.
# Percent of secreted Wnt-3A by L-Wnt3A cells treated with vehicle or compound 10 from two independent experiments is shown in FIG. 5. Percentage was calculated as the percent relative to […] secretion levels from L-Wnt-3A cells treated with vehicle which correspond to 100%.
compound,measurement,setting,value
"O=C(COc1ccc(Cl)c(F)c1)N[C@H]1CC[C@H](CNC(=O)c2ccc3cc(Cl)ccc3n2)CC1 [Compound 10, trans-6-chloro-N-((4-(2-(4-chloro-3-fluorophenoxy)acetamido)cyclohexyl)methyl)quinoline-2-carboxamide]",activity at 1 µM,[1],229%
same,Secretion of Ig kappa light chain,ARH cells,increased the secretion of the immunoglobulin light chain kappa
same,Secretion of Wnt-3A,L-Wnt-3A cells,increased the secretion of a particular protein (Wnt-3A)
